Measured values from patent US9937115B2, “Oral care compositions with improved flavor” (priority 2010, dated 2018).

What was measured:
[1] = Panelists brushed with dentifrice Formula Ia-Ie and rated reduction in soapy off taste and flavor character; assay type: in vivo; conditions: molecule incorporated in toothpaste Formula Ia-Ie; panelists n=4
From the text: Then, these materials were further screened in Test Formula Ia-Ie, by incorporating at the indicated level. After the toothpaste was made, a small group of panelists (n=4) brushed with the dentifrice and rated the reduction in soapy off taste and the flavor character the compound provided.

TRPA1 receptor [2] = target: T1, TRPA1 receptor (Homo sapiens, UniProt O75762); assay: cell-based; design: activation: dose or concentration left out as unconfirmed; conditions: for % of AITC Receptor Activation (from Data in Table II): restated in Table III from Table II; for activation at 100 µM / activation: HEK293; for activation at 100 µM / activation / TRPA1 Direct addition: percentage of the control (allyl isothiocyanate) calcium count, material dissolved in DMSO at 100 micromolar, HEK cells with TRPA1; for activation at 100 µM / TRPA1 Direct addition: direct addition; for activation at 100 µM: read-out: TRPA1 Direct addition; for activation: pre-incubation, read-out: TRPA1 Pre-incubation;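 for TRPA1 Pre-incubation: values above 100 mean more active than the control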
T1 construct: expressed in transfected cells; host or cells: HEK cell line
Outline: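 HEK cells expressing TRPA1 were treated with test compounds dissolved in DMSO at 100 micromolar, with allyl isothiocyanate as positive control. Agonism was read on a FLIPR as calcium-dye fluorescence counts above background. A TRPA1 activator was defined as giving at least 1000 counts above background at 1 mM.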

TRPA1 receptor [3] = target: T1, TRPA1 receptor; assay type: cell-based; conditions: percentage of the control (allyl isothiocyanate) calcium count, material dissolved in DMSO at 100 micromolar, HEK cells with TRPA1
[4] = concentration where the cooling effect could be clearly recognized; cited from earlier work

T1 sequence (O75762 whole entry): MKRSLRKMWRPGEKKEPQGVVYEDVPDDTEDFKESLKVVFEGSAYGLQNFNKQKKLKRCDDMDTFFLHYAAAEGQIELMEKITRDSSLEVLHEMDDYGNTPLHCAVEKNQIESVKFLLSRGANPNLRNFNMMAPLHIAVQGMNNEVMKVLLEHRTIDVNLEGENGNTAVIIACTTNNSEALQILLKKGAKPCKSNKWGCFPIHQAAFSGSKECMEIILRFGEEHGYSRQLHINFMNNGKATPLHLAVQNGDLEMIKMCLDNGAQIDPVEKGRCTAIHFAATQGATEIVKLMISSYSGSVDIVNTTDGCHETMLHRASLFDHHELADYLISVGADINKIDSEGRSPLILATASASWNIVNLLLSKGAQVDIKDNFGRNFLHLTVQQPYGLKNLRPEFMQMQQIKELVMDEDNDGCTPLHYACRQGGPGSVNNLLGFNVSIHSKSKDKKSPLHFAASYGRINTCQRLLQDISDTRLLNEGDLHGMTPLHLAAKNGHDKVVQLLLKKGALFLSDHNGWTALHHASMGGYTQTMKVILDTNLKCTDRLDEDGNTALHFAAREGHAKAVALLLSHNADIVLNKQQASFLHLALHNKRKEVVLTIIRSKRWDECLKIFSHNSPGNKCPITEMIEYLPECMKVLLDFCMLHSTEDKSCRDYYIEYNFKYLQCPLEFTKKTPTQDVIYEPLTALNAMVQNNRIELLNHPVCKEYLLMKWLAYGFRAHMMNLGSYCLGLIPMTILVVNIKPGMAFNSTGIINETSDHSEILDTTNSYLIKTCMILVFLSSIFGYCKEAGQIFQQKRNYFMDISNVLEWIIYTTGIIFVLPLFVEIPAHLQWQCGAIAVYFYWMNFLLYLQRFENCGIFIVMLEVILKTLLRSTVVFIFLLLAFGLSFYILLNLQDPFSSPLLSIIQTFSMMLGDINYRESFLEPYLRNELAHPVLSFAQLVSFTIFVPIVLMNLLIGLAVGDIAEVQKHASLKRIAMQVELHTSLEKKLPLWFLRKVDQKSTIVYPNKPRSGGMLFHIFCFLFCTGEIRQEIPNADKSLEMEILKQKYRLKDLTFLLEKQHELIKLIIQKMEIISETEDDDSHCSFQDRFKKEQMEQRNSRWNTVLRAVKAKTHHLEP

Compound | TRPA1 Pre-incubation (TRPA1 receptor [3]) [%] | TRPA1 Direct addition (TRPA1 receptor [2]) [%] | also measured
CCC(C)/C=C(\C=O)c1ccccc1 (stereo not drawn) [4-Methyl-2-phenyl-2-hexenal, 4-Methyl-2-phenyl-2-hexenal] | – | – | Qualitative Team Evaluations (n = 4) [1]: Reduces the bitterness from alkyl phosphates, but it has a bitter character on its own; % of AITC Receptor Activation (from Data in Table II) (TRPA1 receptor [2]): 132%
O=C(c1ccccc1)c1ccccc1 [Benzophenone] | – | – | Qualitative Team Evaluations (n = 4) [1]: No observable effect; activation at 100 µM (TRPA1 receptor [2]): 138%; activation (TRPA1 receptor [2]): 0%; % of AITC Receptor Activation (from Data in Table II) (TRPA1 receptor [2]): 138%
CCOc1cc(C=O)ccc1OC(=O)C(C)C [Ethyl vanillin isobutyrate] | – | – | Qualitative Team Evaluations (n = 4) [1]: Great reduction in bitter taste with no aftertaste. Slight vanilla character. Similar to vanillin isobutyrate
C=C(OCC)C1C(C)(C)CC(=O)CC1(C)C [Kephalis] | 83.88 | −0.23 | –
C=C[C@](C)(O)CCC=C(C)C [L-Linalool] | 65.28 | −11.37 | –
CC(C)[C@@H]1CC[C@@H](C)CC1=O [L-Menthone] | 70.56 | 4.4 | –
O=C(O)C(O)C(O)C(=O)O [L-Tataric Acid] | 79 | −2.77 | –
CC(C)[C@@H]1CC[C@@H](C)C[C@H]1O [L-menthol] | – | – | cooling threshold [4]: about 800 ppb
CC(=O)O[C@@H]1C[C@H](C)CC[C@H]1C(C)C [Laevo Menthyl Acetate] | 87.91 | −9.39 | –
CCCCCCCCCCCC=O [Lauric Aldehyde] | 85.96 | 19.05 | –
CC(C)=CCC/C(C)=C/C=O [Lemarome] | 41.41 | 80.13 | –
CC(C)[C@@H]1CC[C@@H](C)C[C@@H]1O [Material 1-neomenthol, 1-neomenthol] | – | – | cooling threshold [4]: about 3,000 ppb
COC(=O)CCCc1ccccc1 [Methyl 4-Phenyl butyrate] | 98.83 | −0.22 | –
CC1CCC(C(C)(C)S)C(=O)C1 (stereo not drawn) [P-Mentha-8-Thiol-3-one] | 73.82 | 46.29 | –
Cc1ccc(C=O)cc1 [P-Totylaldehyde] | 60.52 | 11.1 | –
CC(=O)OCCCc1ccccc1 [Phenyl Propyl Acetate] | 69.3 | −9.54 | –
C=C(C)CCCC(C)CCOC(C)=O (stereo not drawn) [Rhodinyl Acetate] | 66.4 | −17.14 | –
CC1C2CC(CC2C2CCCC(O)C2)C1(C)C (stereo not drawn) [Sandela] | 94.17 | 25.65 | –
[Cl][Sn][Cl] [Stannous Chloride] | 54.35 | −14.1 | –

Compound | TRPA1 Pre-incubation (TRPA1 receptor [3]) [%] | TRPA1 Direct addition (TRPA1 receptor [2]) [%] | also measured
CCC(C)(O)CCCC(C)C (stereo not drawn) [Tetrahydrolinalool] | 70.8 | −17.09 | –
Oc1cc(Cl)ccc1Oc1ccc(Cl)cc1Cl [Triclosan, reference compound] | – | – | Qualitative Team Evaluations (n = 4) [1]: Shifted off-taste from soapy to bitter after 10 minutes; activation at 100 µM (TRPA1 receptor [2]): 196%; activation (TRPA1 receptor [2]): -0.05%; % of AITC Receptor Activation (from Data in Table II) (TRPA1 receptor [2]): 277%
C=CCCCCCCCCC=O [Undecylenic Aldehyde] | 52.14 | −14.32 | –
C=C(C)[C@@H]1CCC2=CCC[C@@H](C)[C@]2(C)C1 [Valencene] | 94.99 | 0.1 | –
COc1cc(C=O)ccc1OC(=O)C(C)C [Vanillin Isobutyrate] | – | – | Qualitative Team Evaluations (n = 4) [1]: Great reduction in bitter taste with no aftertaste. Slight vanilla character.; activation at 100 µM (TRPA1 receptor [2]): 118%; activation (TRPA1 receptor [2]): -0.11%; % of AITC Receptor Activation (from Data in Table II) (TRPA1 receptor [2]): 118%
[Cl-].[Cl-].[Zn+2] [Zinc Chloride] | 21.61 | 5.46 | –
C=C(C)C1CC=C(C)C(OC(C)=O)C1 (stereo not drawn) [carvyl acetate] | 117.9 | −0.25 | –
CC(C)[C@@H]1CC[C@@H](C)C[C@@H]1O [d-neomenthol] | – | – | cooling threshold [4]: about 25,000 ppb
C/C=C/C(=O)C1C(C)C=CCC1(C)C (stereo not drawn) [delta-damascone] | 138.93 | 0.74 | –
C/C=C/c1ccc(OCC)c(OC)c1 [ethyl isoeugenol] | 111.43 | −0.14 | –
CCOc1cc(C2OCC(C)O2)ccc1O (stereo not drawn) [ethyl vanillin propylene glycol acetal] | 103.19 | 0 | –
CCCC(=O)OC(C)c1ccccc1 (stereo not drawn) [methyl benzyl butyrate] | 116.22 | −0.34 | –
CCCC/C=C/C=C/C=O [trans,trans,-2,4-Nonadienal] | −4.24 | 112.15 | –
Benzaldehyde Glyceryl Acetal | 30.62 | −2.74 | –
Iso Jasmone | 58.16 | 11.48 | –
Jasmonyl | 68.48 | 7.36 | –
Phellandrene | 52.15 | 1.65 | –
Rhodinol 70 Spec 59508 | 87.57 | −9.13 | –
Roselea Spec 59514 | 71.26 | 14.53 | –
